Measurements taken from patent US20110008888A1, “Novel Genetic Approaches to Reduce or Inhibit Tumorgenicity of Human Embryonic Stem Cells and Derivatives Following Transplantation” (The John Hopkins University, priority 2005, published 2011).
Entries after “also recorded” stand apart in the source; their conditions may differ. Read-outs that look alike come from different tables or passages of the source.

What was measured:
[1] = system: mESCs; experiment: Cell proliferation assay, mESCs (viable cell count after 48 hours); assay type: cell-based, mouse; conditions: for EC50: mESCs, cell number after 48 hours, read-out: half-effective concentration (EC50) for inhibition of mESC proliferation; for effect on proliferation of mESCs (words): dose-dependent, p<0.05
[2] = system: delayed rectifier K+ currents (IKDR) in mESCs; experiment: Whole-cell patch clamp, block of IKDR in undifferentiated mESCs; assay type: cell-based, mouse; conditions: for IC50: whole-cell patch clamp, room temperature
[3] = system: hESCs; experiment: Cell proliferation assay, hESCs (colony parameters after 6 days); assay type: cell-based, human; conditions: for effect on proliferation of hESCs: dose-dependent, p<0.05
[4] = system: IKDR in hESCs; experiment: Whole-cell patch clamp, block of IKDR in undifferentiated hESCs; assay type: cell-based, human; conditions: pluripotent hESCs (H1)
[5] = system: ESCs; experiment: Cytotoxic effects of K+ channel blockers on ESCs; conditions: high concentrations

Compound	EC50 ([1]; Mus musculus) [µM]	effect on proliferation of mESCs (words) [1]	IC50 ([2]; undifferentiated mESCs) [µM]	effect on proliferation of hESCs [3]	IC50 [4] [µM]	effect on proliferation of mESCs (words) ([1]; listed as TEA+)	EC50 [1] [µM]	EC50 ([3]; hESCs, colony parameters after 6 days, read-out: EC50 for inhibition of hESC proliferation) [µM]	cytotoxic effects [5]	IKDR component sensitive to blocker ([2]; mESCs, 100 nM IBTX)	current inhibition of IKDR in mESCs ([2]; undifferentiated mESCs, IBTX 100 nM, n=3) [%]
Nc1ccncc1 [4-AP, 4-aminopyridine]	4000 ± 1800	significantly reduced	550 ± 170	significantly reduced	–	–	–	–	–	–	–
CC[N+](CC)(CC)CC [TEA]	–	significantly reduced	1400 ± 380	significantly reduced	2100 ± 200	significantly inhibited	11900 ± 1200	3800 ± 100	–	–	–
iberiotoxin [IBTX]	–	significantly reduced; also recorded: dose-dependently reduced	–	significantly reduced	–	–	–	–	cytotoxic effects	sensitive	33.2±12.7
